Laboratory results taken from patent US10139394B2, “Method for controlling cancer metastasis or cancer cell migration by modulating the cellular level of lysyl tRNA synthetase” (Medicinal Bioconvergence Research Center, priority 2008, dated 2018).

How the values were obtained:
[1] = tested on: membrane translocation of KRS; assay: Laminin-dependent membrane translocation of KRS and 67LR, cell fractionation and Western blotting; format: cell-based; settings: A549 cells; laminin 10 ug/ml, time course; FIG. 7
Description: In FIG. 7, A549 cells were treated with laminin (10 ug/ml) and the level of 67LR, 37LRP and KRS was determined by Western blotting at the indicated times. Hsp90 and Cadherin were used as markers for cytoplasm and membrane, respectively. In FIG. 8, A549 cells untreated or treated with laminin for 1 h were subjected to immunofluorescence staining with anti-67LR (MLuC5, Santacruz, sc-59732) (red) and -KRS antibodies (green). In FIG. 9, A549 cells were treated with U73122 (U), staurosporin (ST) and LY294002 (LY) that inhibit PLC-gamma, PKC and PI3K, respectively, for 3 hr, then with laminin for 1 hr and checked how these kinase inhibitors would affect the membrane and cytoplasmic level of 67LR and KRS. In FIG. 10, A549 cells were transfected with Myc-KRS and incubated for 24 h. The cells were treated with the indicated chemicals and then with laminin as above. Myc-KRS was immunoprecipitated, and immunoblotted with anti-p-Thr, -Ser, and -Tyr antibodies. In FIG. 11, A549 cells were transfected with Myc-KRS and cultivated for 24 hr. The transfectants were pre-treated with LY294002 for 3 hr and then treated with laminin for 1 h. Myc-KRS was immunoprecipitated and co-precipitation of 67LR was determined by Western blotting. IgG was used as a control for immunoprecipitation. In FIG. 12, A549 cells were cultivated in the absence and presence of laminin and LY294002 as indicated. EPRS (glutamyl-prolyl-tRNA synthetase) was immunoprecipitated with its specific antibody (AbCam), and co-immunoprecipitation of KRS was determined by Western blotting (upper). The immune-depleted supernatant (ID) were subjected to Western blottingting with anti-KRS and -EPRS antibodies.
The cells were lysed with 20 mM Tris-HCl (pH 7.4) buffer containing 150 mM NaCl, 0.5% TritonX-100, 0.1% SDS, and protease inhibitor. The protein extracts were incubated with normal IgG and protein G agarose for 2 hr and then centrifuged to remove nonspecific IgG binding proteins. […]

MMP-2 = MMP-2 zymography; format: cell-based; settings: A549 cells; laminin 10 μg/ml 24 hr; FIG. 19
Description: In FIG. 18, A549 cells were transfected with the indicated plasmids, incubated in the absence and presence of laminin and their effect on cell migration was determined by measuring the migrated cells in transwell chamber as described. The numbers of the cells passed through the membrane were counted and shown in each panel. The experiments were performed three times. In FIG. 19, the cells treated as above were used to determine MMP-2 activity and level by zymography and Western blotting, respectively. In FIG. 20, Breast carcinoma 4T-1 cells were transfected with the indicated siRNA and subcutaneously injected to the back of Balb/C mice. After 21 days, mouse lungs were isolated and tumor nodules over 1 mm in diameter were counted. In FIG. 21, two different 4T-1 cells stably expressing exogenously introduced KRS (KRS-1 and -2) were also inoculated as above and the tumor nodules were counted 30 days after injection. 4T-1 cells with empty vector were used as control. In FIG. 22, expression levels of KRS and 67LR in lung (upper) and breast (lower) cancer tissues were compared by immunohistochemical staining with their respective antibodies. 39 lung and 40 breast cancer tissues were subjected to immunohistochemical staining with anti-KRS and anti-67LR antibodies and their expression levels were compared with those in normal tissues (9 samples for each tissue). […]

For “laminin: laminin (Engelbreth-Holm-Swarm murine sarcoma) from Sigma”, the “membrane level of KRS and 67LR” value [1] was “gradually increased” and the MMP-2 activity (MMP-2) was “enhanced”.
